Assay results: US20240415778A1, “ORAL PREPARATION CONTAINING PROGESTOGEN, AND PREPARATION METHOD AND USE” (priority 2021, published 2024)
“Also recorded” adds a separate entry of the source. Like-named read-outs stand apart in the source and are kept apart here.

Assays:
[1] = Solubility property of 17-HPC in different excipients; assay type: physicochemical
Description: However, the stable solubility concentrations vary for each excipient, with specific values provided in the last column of Table 2.

[2] = WHO-JECFA database or supplier values; cited from earlier work
[3] = Acceptable daily intake (ADI) of excipients
Description: The applicant has previously collaborated with other entities to develop an oral formulation of 17-α hydroxyprogesterone and obtained a patent for it.

CCCCCC(=O)O[C@]1(C(C)=O)CC[C@H]2[C@@H]3CCC4=CC(=O)CC[C@]4(C)[C@H]3CC[C@@]21C [Formulation 17-HPC, hydroxyprogesterone caproate]
Suggested working concentrations based on physical stability and saturated solubility results ([1]; Glycerol Monooleate (Maisine ® CC)): 65 mg/g | Suggested working concentrations based on physical stability and saturated solubility results ([1]; Mono-Octanoin Glyceride (Capmul 808G)): 120 mg/g | Suggested working concentrations based on physical stability and saturated solubility results ([1]; Oleic Acid): 70 mg/g | Suggested working concentrations based on physical stability and saturated solubility results ([1]; Oleic Acid Glyceride (Peceol ®)): 50 mg/g | Suggested working concentrations based on physical stability and saturated solubility results ([1]; Olive Oil): insufficient to meet the meaningful solubility concentration required for adult formulations | Suggested working concentrations based on physical stability and saturated solubility results ([1]; PEG15 Hydroxystearate (Kolliphor ® HS15)): cannot achieve stable solubility; also recorded: Chemically unstable | Suggested working concentrations based on physical stability and saturated solubility results ([1]; PEG35 Castor Oil (Kolliphor ® ELP)): 30 mg/g | Suggested working concentrations based on physical stability and saturated solubility results ([1]; PEG40 Hydrogenated Castor Oil (Kolliphor ® RH40)): cannot achieve stable solubility; also recorded: Chemically unstable | Suggested working concentrations based on physical stability and saturated solubility results ([1]; Propylene Glycol Monocaprylate (Capryol ® 90)): 150 mg/g | Suggested working concentrations based on physical stability and saturated solubility results ([1]; Propylene Glycol Monolaurate (Lauroglycol ® 90)): 100 mg/g

CCCCCCCC(=O)OCC(O)CO (centres unmarked) [Glycerol monocaprylate]
Acceptable Daily Intake (ADI) [2]: none | ADI/Weight 60 kg [3]: none

Propylene glycol monocaprylate
Acceptable Daily Intake (ADI) [2]: 56 mg/kg/day | ADI/Weight 60 kg ([3]; for 60 kg body weight): 3.36
